Patent US20250230171A1 (MOMA Therapeutics, Inc., priority 2023, published 2025)
Read-outs that look alike come from different tables or passages of the source.

What was measured:
[1] = molecular target: biotinylated Avi-POLθ[2-894] (Homo sapiens (Human), UniProt O75417); assay: POLθ ATPase assay (ADP-Glo); conditions: n=2; read-out: Biochemical ATPase ADPGlo IC50
[2] = system: DLD1 BRCA2 (−/−) cells; assay: 7-day cell viability assay (CellTiter-Glo), DLD1 BRCA2 (−/−); format: cell-based, human; conditions: 7-day viability, n=2, read-out: Viability IC50 (uM) DLD1 BRCA2 null
Procedure, shortened: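 7-day growth assay in DLD1 cells with or without BRCA2; seeding densities chosen to keep log-linear growth. Compound: 10 uM top, 3-fold, 9 points. Endpoint: CTG ATP luminescence at RT.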

[3] = system: DLD1 WT cells; assay: 7-day cell viability assay (CellTiter-Glo), DLD1 parental (WT); format: cell-based, human; conditions: 7-day viability, n=2

biotinylated Avi-POLθ[2-894], sequence (O75417 2-894): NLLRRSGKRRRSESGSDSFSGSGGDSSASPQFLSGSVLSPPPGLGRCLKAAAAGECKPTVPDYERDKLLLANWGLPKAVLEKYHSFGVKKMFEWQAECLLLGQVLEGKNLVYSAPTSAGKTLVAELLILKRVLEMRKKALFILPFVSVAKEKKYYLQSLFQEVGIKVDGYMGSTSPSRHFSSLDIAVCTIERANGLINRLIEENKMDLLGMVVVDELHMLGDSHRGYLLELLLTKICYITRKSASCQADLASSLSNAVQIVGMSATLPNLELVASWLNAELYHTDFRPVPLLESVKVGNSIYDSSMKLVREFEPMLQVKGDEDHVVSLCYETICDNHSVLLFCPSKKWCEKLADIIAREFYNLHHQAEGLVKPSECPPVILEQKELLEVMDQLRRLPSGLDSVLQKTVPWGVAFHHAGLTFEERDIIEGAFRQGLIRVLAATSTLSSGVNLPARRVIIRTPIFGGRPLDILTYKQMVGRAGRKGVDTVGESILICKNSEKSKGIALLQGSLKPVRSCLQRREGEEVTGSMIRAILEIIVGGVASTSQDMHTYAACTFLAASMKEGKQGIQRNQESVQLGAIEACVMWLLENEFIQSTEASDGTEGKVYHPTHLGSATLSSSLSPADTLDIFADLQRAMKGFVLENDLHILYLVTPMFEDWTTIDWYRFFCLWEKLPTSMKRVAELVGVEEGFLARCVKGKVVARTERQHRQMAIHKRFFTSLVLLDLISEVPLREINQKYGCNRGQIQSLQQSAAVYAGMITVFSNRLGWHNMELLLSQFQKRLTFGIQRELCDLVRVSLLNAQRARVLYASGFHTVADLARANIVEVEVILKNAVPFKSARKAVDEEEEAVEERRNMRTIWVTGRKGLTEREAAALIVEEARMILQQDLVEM

COc1cnc(Cl)cc1-c1cc(C)ncc1C(=O)Nc1nc2c(s1)CN(C(=O)c1c(C(F)F)nn(C)c1Cl)C2 [Example 89, 2′-chloro-N-(5-(5-chloro-3-(difluoromethyl)-1-methyl-1H-pyrazole-4-carbonyl)-5,6-dihydro-4H-pyrrolo[3,4-d]thiazol-2-yl)-5′-methoxy-6-methyl-[4,4′-bipyridine]-3-carboxamide]
IC50 [1]: 1 to 15 nM | IC50 ([2]; Homo sapiens, DLD-1, 168 h): 0.001 to 0.1 µM | IC50 ([3]; Homo sapiens, DLD-1, 168 h): ≥ 10 µM

COc1cc(C(=O)N2Cc3nc(NC(=O)c4cnc(C)cc4-c4cc(Cl)ncc4OC)sc3C2)n(C)n1 [Example 90, 2′-chloro-5′-methoxy-N-(5-(3-methoxy-1-methyl-1H-pyrazole-5-carbonyl)-5,6-dihydro-4H-pyrrolo[3,4-d]thiazol-2-yl)-6-methyl-[4,4′-bipyridine]-3-carboxamide]
IC50 [1]: 1 to 15 nM | IC50 ([2]; Homo sapiens, DLD-1, 168 h): 0.001 to 0.1 µM | IC50 ([3]; Homo sapiens, DLD-1, 168 h): ≥ 10 µM

COc1cnc(Cl)cc1-c1cc(C)ncc1C(=O)Nc1nc2c(s1)CN(C(=O)c1ccc(OC(F)F)cn1)C2 [Example 93, 2′-chloro-N-(5-(5-(difluoromethoxy)picolinoyl)-5,6-dihydro-4H-pyrrolo[3,4-d]thiazol-2-yl)-5′-methoxy-6-methyl-[4,4′-bipyridine]-3-carboxamide]
IC50 [1]: 1 to 15 nM | IC50 ([2]; Homo sapiens, DLD-1, 168 h): 0.001 to 0.1 µM | IC50 ([3]; Homo sapiens, DLD-1, 168 h): 0.001 to 0.5 µM

COc1cnc(Cl)cc1-c1cc(C)ncc1C(=O)Nc1nc2c(s1)CN(C(=O)c1cc(C(F)F)ccn1)C2 [Example 94, 2′-chloro-N-(5-(4-(difluoromethyl)picolinoyl)-5,6-dihydro-4H-pyrrolo[3,4-d]thiazol-2-yl)-5′-methoxy-6-methyl-[4,4′-bipyridine]-3-carboxamide]
IC50 [1]: 1 to 15 nM | IC50 ([2]; Homo sapiens, DLD-1, 168 h): 0.001 to 0.1 µM | IC50 ([3]; Homo sapiens, DLD-1, 168 h): ≥ 10 µM

COc1cnc(Cl)cc1-c1cc(C)ncc1C(=O)Nc1nc2c(s1)CN(C(=O)c1cc(C(C)C)n(C)n1)C2 [Example 95, 2′-chloro-N-(5-(5-isopropyl-1-methyl-1H-pyrazole-3-carbonyl)-5,6-dihydro-4H-pyrrolo[3,4-d]thiazol-2-yl)-5′-methoxy-6-methyl-[4,4′-bipyridine]-3-carboxamide]
IC50 [1]: 1 to 15 nM | IC50 ([2]; Homo sapiens, DLD-1, 168 h): 0.001 to 0.1 µM | IC50 ([3]; Homo sapiens, DLD-1, 168 h): ≥ 10 µM

COc1cn2cncc2cc1-c1cc(C)ncc1C(=O)Nc1nc2c(s1)CN(C(=O)c1ccc(C(F)F)cn1)C2 [Example 117]
IC50 [1]: 1 to 15 nM | IC50 ([2]; Homo sapiens, DLD-1, 168 h): 0.001 to 0.1 µM | IC50 ([3]; Homo sapiens, DLD-1, 168 h): ≥ 10 µM

COc1ncc(Cl)cc1-c1cc(C)ncc1C(=O)Nc1nc2c(s1)CN(C(=O)c1ccccn1)C2 [Example 118]
IC50 [1]: 1 to 15 nM | IC50 ([2]; Homo sapiens, DLD-1, 168 h): 0.001 to 0.1 µM | IC50 ([3]; Homo sapiens, DLD-1, 168 h): 2 to 5 µM

COc1ccc(C(=O)N2Cc3nc(NC(=O)c4cnc(C)cc4-c4cc(Cl)ncc4OC)sc3C2)nc1 [Example 121]
IC50 [1]: 1 to 15 nM | IC50 ([2]; Homo sapiens, DLD-1, 168 h): 0.001 to 0.1 µM | IC50 ([3]; Homo sapiens, DLD-1, 168 h): ≥ 10 µM

COc1ccc(C#N)cc1-c1cc(C)ncc1C(=O)Nc1nc2c(s1)CN(C(=O)c1ccc(C(F)F)cn1)C2 [Example 122]
IC50 [1]: 1 to 15 nM | IC50 ([2]; Homo sapiens, DLD-1, 168 h): 0.001 to 0.1 µM | IC50 ([3]; Homo sapiens, DLD-1, 168 h): 5 to 10 µM

COc1ccc(C#N)cc1-c1cc(C)ncc1C(=O)Nc1nc2c(s1)CN(C(=O)c1c(Cl)cnn1C)C2 [Example 123]
IC50 [1]: 1 to 15 nM | IC50 ([2]; Homo sapiens, DLD-1, 168 h): 0.001 to 0.1 µM | IC50 ([3]; Homo sapiens, DLD-1, 168 h): ≥ 10 µM

COc1cnc(Cl)cc1-c1cc(C)ncc1C(=O)Nc1nc2c(s1)CN(C(=O)c1ccc(C(F)(F)F)cn1)C2 [Example 132]
IC50 [1]: 1 to 15 nM | IC50 ([2]; Homo sapiens, DLD-1, 168 h): 0.001 to 0.1 µM | IC50 ([3]; Homo sapiens, DLD-1, 168 h): 5 to 10 µM

COc1cnc(Cl)cc1-c1cc(C)ncc1C(=O)Nc1nc2c(s1)CC(Nc1ccc(O)cc1)CC2 (stereo not drawn) [Example 135]
IC50 [1]: 1 to 15 nM | IC50 ([2]; Homo sapiens, DLD-1, 168 h): 0.5 to 2 µM | IC50 ([3]; Homo sapiens, DLD-1, 168 h): 5 to 10 µM

COc1cnc(Cl)cc1-c1cc(C)ncc1C(=O)Nc1nc2c(s1)CN(C(=O)C1CC3(CC(OC)C3)C1)C2 (stereo not drawn) [Example 140]
IC50 [1]: 1 to 15 nM | IC50 ([2]; Homo sapiens, DLD-1, 168 h): 0.001 to 0.1 µM | IC50 ([3]; Homo sapiens, DLD-1, 168 h): 5 to 10 µM

COc1cnc(Cl)cc1-c1cc(C)ncc1C(=O)Nc1nc2c(s1)CC(N[C@H]1C[C@H](O)C1)CC2 (stereo partly drawn) [Example 141, 2′-Chloro-N-(6-(((1r,3r)-3-hydroxycyclobutyl)amino)-4,5,6,7-tetrahydrobenzo[d]thiazol-2-yl)-5′-methoxy-6-methyl-[4.4′-bipyridine]-3-carboxamide]
IC50 [1]: 1 to 15 nM | IC50 [2]: 0.001 to 0.1 µM | IC50 [3]: ≥ 10 µM

COc1cnc(Cl)cc1-c1cc(C)ncc1C(=O)Nc1nc2c(s1)CN(C(=O)c1ncccc1OC(F)F)C2 [Example 145]
IC50 [1]: 1 to 15 nM | IC50 ([2]; Homo sapiens, DLD-1, 168 h): 0.001 to 0.1 µM | IC50 ([3]; Homo sapiens, DLD-1, 168 h): ≥ 10 µM

COc1cnc(Cl)cc1-c1cc(C)ncc1C(=O)Nc1nc2c(s1)CN(C(=O)c1c(OC)cnn1C)C2 [Example 146]
IC50 [1]: 1 to 15 nM | IC50 ([2]; Homo sapiens, DLD-1, 168 h): 0.001 to 0.1 µM | IC50 ([3]; Homo sapiens, DLD-1, 168 h): ≥ 10 µM

COc1cnc(Cl)cc1-c1cc(C)ncc1C(=O)Nc1nc2c(s1)CN(C(=O)C1CC3(CC(O)C3)C1)C2 (stereo not drawn) [Example 148]
IC50 [1]: 1 to 15 nM | IC50 ([2]; Homo sapiens, DLD-1, 168 h): 0.1 to 0.25 µM | IC50 ([3]; Homo sapiens, DLD-1, 168 h): ≥ 10 µM

COc1ccncc1C(=O)N1Cc2nc(NC(=O)c3cnc(C)cc3-c3cc(Cl)ncc3OC)sc2C1 [Example 155]
IC50 [1]: 1 to 15 nM | IC50 ([2]; Homo sapiens, DLD-1, 168 h): 0.5 to 2 µM | IC50 ([3]; Homo sapiens, DLD-1, 168 h): ≥ 10 µM

COc1cnc(Cl)cc1-c1cc(C)ncc1C(=O)Nc1nc2c(s1)CN(C(=O)c1c(Cl)cnn1C)C2 [Example 156]
IC50 [1]: 1 to 15 nM | IC50 ([2]; Homo sapiens, DLD-1, 168 h): 0.001 to 0.1 µM | IC50 ([3]; Homo sapiens, DLD-1, 168 h): ≥ 10 µM

COc1cnc(Cl)cc1-c1cc(C)ncc1C(=O)Nc1nc2c(s1)CN(C(=O)c1nn(C)cc1OC)C2 [Example 157]
IC50 [1]: 1 to 15 nM | IC50 ([2]; Homo sapiens, DLD-1, 168 h): 0.25 to 0.5 µM | IC50 ([3]; Homo sapiens, DLD-1, 168 h): ≥ 10 µM

COc1cnc(Cl)cc1-c1cc(C)ncc1C(=O)Nc1nc2c(s1)CN(C(=O)c1ncccc1C(F)F)C2 [Example 158]
IC50 [1]: 1 to 15 nM | IC50 ([2]; Homo sapiens, DLD-1, 168 h): 0.1 to 0.25 µM | IC50 ([3]; Homo sapiens, DLD-1, 168 h): ≥ 10 µM

COc1cnc(Cl)cc1-c1cc(C)ncc1C(=O)Nc1nc2c(s1)CN(C(=O)c1ccn(C(F)F)n1)C2 [Example 159]
IC50 [1]: 1 to 15 nM | IC50 ([2]; Homo sapiens, DLD-1, 168 h): 0.1 to 0.25 µM | IC50 ([3]; Homo sapiens, DLD-1, 168 h): ≥ 10 µM

COc1cnc(Cl)cc1-c1cc(C)ncc1C(=O)Nc1nc2c(s1)CN(C(=O)c1cn(C)nc1Cl)C2 [Example 161]
IC50 [1]: 1 to 15 nM | IC50 ([2]; Homo sapiens, DLD-1, 168 h): 0.5 to 2 µM | IC50 ([3]; Homo sapiens, DLD-1, 168 h): ≥ 10 µM

COc1cnc(Cl)cc1-c1cc(C)ncc1C(=O)Nc1nc2c(s1)CN(C(=O)[C@H]1C[C@H](C(F)(F)F)C1)C2 [Example 164, 4-(5-Cyano-2-methoxyphenyl)-6-methyl-N-(5-(pyridin-3-ylsulfonyl)-5,6-dibydro-4H-pyrrolo[3,4-d]thiazol-2-yl)nicotinamide]
IC50 [1]: 1 to 15 nM | IC50 ([2]; Homo sapiens, DLD-1, 168 h): 0.1 to 0.25 µM | IC50 ([3]; Homo sapiens, DLD-1, 168 h): ≥ 10 µM

COc1cnccc1C(=O)N1Cc2nc(NC(=O)c3cnc(C)cc3-c3cc(Cl)ncc3OC)sc2C1 [Example 168]
IC50 [1]: 1 to 15 nM | IC50 ([2]; Homo sapiens, DLD-1, 168 h): 0.1 to 0.25 µM | IC50 ([3]; Homo sapiens, DLD-1, 168 h): ≥ 10 µM

COc1cnc(Cl)cc1-c1cc(C)ncc1C(=O)Nc1nc2c(s1)CN(C(=O)c1ncccc1OC)C2 [Example 169]
IC50 [1]: 1 to 15 nM | IC50 ([2]; Homo sapiens, DLD-1, 168 h): 0.1 to 0.25 µM | IC50 ([3]; Homo sapiens, DLD-1, 168 h): ≥ 10 µM

COc1cnc(Cl)cc1-c1cc(C)ncc1C(=O)Nc1nc2c(s1)CN(C(=O)c1ccnn1C)C2 [Example 170]
IC50 [1]: 1 to 15 nM | IC50 ([2]; Homo sapiens, DLD-1, 168 h): 0.1 to 0.25 µM | IC50 ([3]; Homo sapiens, DLD-1, 168 h): ≥ 10 µM

COc1cnc(Cl)cc1-c1cc(C)ncc1C(=O)Nc1nc2c(s1)CN(C(=O)[C@H]1C[C@@H](OC)C1)C2 [Example 171]
IC50 [1]: 1 to 15 nM | IC50 ([2]; Homo sapiens, DLD-1, 168 h): 0.1 to 0.25 µM | IC50 ([3]; Homo sapiens, DLD-1, 168 h): ≥ 10 µM

COc1cnc(Cl)cc1-c1cc(C)ncc1C(=O)Nc1nc2c(s1)CN(C(=O)c1cccnc1OC)C2 [Example 172]
IC50 [1]: 1 to 15 nM | IC50 ([2]; Homo sapiens, DLD-1, 168 h): 0.001 to 0.1 µM | IC50 ([3]; Homo sapiens, DLD-1, 168 h): ≥ 10 µM

COc1cnc(Cl)cc1-c1cc(C)ncc1C(=O)Nc1nc2c(s1)CN(C(=O)c1ccc(O)cn1)C2 [Example 174]
IC50 [1]: 1 to 15 nM | IC50 ([2]; Homo sapiens, DLD-1, 168 h): 0.1 to 0.25 µM | IC50 ([3]; Homo sapiens, DLD-1, 168 h): ≥ 10 µM

COc1cnc(Cl)cc1-c1cc(C)ncc1C(=O)Nc1nc2c(s1)CN(C(=O)c1cn(C(C)C)nc1C)C2 [Example 175]
IC50 [1]: 1 to 15 nM | IC50 ([2]; Homo sapiens, DLD-1, 168 h): ≥ 2 µM | IC50 ([3]; Homo sapiens, DLD-1, 168 h): ≥ 10 µM

COc1cnc(Cl)cc1-c1cc(C)ncc1C(=O)Nc1nc2c(s1)CN(C(=O)C1CC(CC(F)F)C1)C2 (stereo not drawn) [Example 177]
IC50 [1]: 1 to 15 nM | IC50 ([2]; Homo sapiens, DLD-1, 168 h): 0.001 to 0.1 µM | IC50 ([3]; Homo sapiens, DLD-1, 168 h): ≥ 10 µM

COc1ccc(C#N)cc1-c1cc(C)ncc1C(=O)Nc1nc2c(s1)CN(C(=O)C1CC(OC(F)F)C1)C2 (stereo not drawn) [Example 179]
IC50 [1]: 1 to 15 nM | IC50 ([2]; Homo sapiens, DLD-1, 168 h): 0.001 to 0.1 µM | IC50 ([3]; Homo sapiens, DLD-1, 168 h): ≥ 10 µM

COc1cnc(Cl)cc1-c1cc(C)ncc1C(=O)Nc1nc2c(s1)CN(C(=O)[C@H]1C[C@@H](C#N)C1)C2 [Example 190]
IC50 [1]: 1 to 15 nM | IC50 ([2]; Homo sapiens, DLD-1, 168 h): 0.25 to 0.5 µM | IC50 ([3]; Homo sapiens, DLD-1, 168 h): ≥ 10 µM
